Molecular target: FKBP12 (Homo sapiens, UniProt P62942)
Experiment: Ki test procedure: inhibition of peptidyl-prolyl isomerase (rotamase) activity, chymotrypsin-coupled assay
Assay type: biochemical
Settings: apparent Ki
Source text: The inhibition of the prolyl peptidyl cis-trans isomerase activity of FKBP may be measured as an indicator of this affinity.
Inhibition of the peptidyl-prolyl isomerase (rotamase) activity of the compounds used in the pharmaceutical compositions can be evaluated by known methods described in the literature (Harding et al., Nature, 1989, 341:758-760; Holt et al. J. Am. Chem. Soc., 115:9923-9938).
The cis-trans isomerization of an alanine-proline bond in a model substrate, N-succinyl-Ala-Ala-Pro-Phe-p-nitroanilide, is monitored spectrophotometrically in a chymotrypsin-coupled assay, which releases para-nitroanilide from the trans form of the substrate. The inhibition of this reaction caused by the addition of different concentrations of inhibitor is determined, and the data is analyzed as a change in first-order rate constant as a function of inhibitor concentration to yield the apparent Ki values.
In a plastic cuvette are added […] of ice cold assay buffer (25 mM HEPES, pH 7.8, 100 mM NaCl), 10 mL of FKBP (2.5 mM in 10 mM Tris-Cl pH 7.5, 100 mM NaCl, 1 mM dithiothreitol), 25 mL of chymotrypsin (50 mg/ml in 1 mM HCl) and […] of test compound at various concentrations in dimethyl sulfoxide. The reaction is initiated by the addition of 5 mL of substrate (succinyl-Ala-Phe-Pro-Phe-para-nitroanilide, 5 mg/mL in 2.35 mM LiCl in trifluoroethanol).
The absorbance at 390 nm versus time is monitored for 90 seconds using a spectrophotometer and the rate constants are determined from the absorbance versus time data files.

Chain of FKBP12 (P62942 whole entry, species assumed): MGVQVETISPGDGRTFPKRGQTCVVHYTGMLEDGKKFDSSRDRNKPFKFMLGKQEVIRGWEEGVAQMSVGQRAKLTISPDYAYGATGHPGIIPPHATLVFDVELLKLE

| SMILES | Ki |
| --- | --- |
| O=C(C(=O)N1CCCC[C@H]1C(=O)OCc1ccccc1)c1ccccc1 [Compound 10] | 1.5 µM |
| O=C(C(=O)N1CCCC[C@H]1C(=O)OCCCCc1ccccc1)c1ccccc1 [Compound 13] | 0.35 µM |
| O=C(C(=O)N1CCCC[C@H]1C(=O)OCCc1ccccc1)c1ccccc1 [Compound 14] | 1.1 µM |
| O=C(C(=O)N1CCCC[C@H]1C(=O)OCc1ccccc1)c1ccco1 [Compound 20] | 3 µM |
| COc1cc(C(=O)C(=O)N2CCCC[C@H]2C(=O)OCCCCc2ccccc2)cc(OC)c1OC [Compound 23] | 0.019 µM |
| COc1ccc(CCCCOC(=O)[C@@H]2CCCCN2C(=O)C(=O)c2cc(OC)c(OC)c(OC)c2)cc1 [Compound 25] | 0.013 µM |

Next, values leading:

| Ki | SMILES |
| --- | --- |
| 0.4 µM | O=C(C(=O)N1CCCC[C@H]1C(=O)OCCCCC1CCCCC1)c1ccccc1 [Compound 15] |
| 80 µM | COC(=O)C(=O)N1CCCC[C@H]1C(=O)OCc1ccccc1 [Compound 16] |
| 20 µM | COC(=O)C(=O)N1CCCC[C@H]1C(=O)OCCCC1CCCCC1 [Compound 18] |
| 35 µM | COC(=O)C(=O)N1CCCC[C@H]1C(=O)OCCCC1CCCC1 [Compound 19] |

From EP1083874B1, “Use of a compound for the preparation of a medicament for treating alopecia or promoting hair growth in an animal” (GPI NIL Holdings, Inc., priority 1998, dated 1999)
